Molecules are shown by their SMILES. “And” between values parts separate entries of the source, which are not always exact repeats. Equal entries are not always repeated.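 All cell lines were grown in 96-well plates and treated with compound for 48 hours. GI50 = concentration required for 50% inhibition of growth. Definition used: TGI = concentration required for complete inhibition of growth.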

Test systems include CAKI-1 renal; HCC-2998 colon; HOP-62 NSCLC; HOP-92 NSCLC; KM12 colon; NCI-H23 lung; RXF 393 renal; SK-OV-3 ovarian; SN12C renal; TK-10 renal.
Common to all, as to experiment: NCI tumour cell line growth inhibition, 48 h

`O=C(CC(O)(C(F)(F)F)C(F)(F)F)c1cc(CC(=O)C(O)(C(F)(F)F)C(F)(F)F)cc(CC(=O)C(O)(C(F)(F)F)C(F)(F)F)c1`: the TGI with CAKI-1 renal amounted to 5.34 µM; with HCC-2998 colon, 4.19 µM; with HOP-62 NSCLC it was 3.29 µM; with HOP-92 NSCLC, 3.35 µM; with KM12 colon, 2.96 µM; with NCI-H23 lung, 4.06 µM. In addition, the TGI came to 4.43 µM in the experiment with RXF 393 renal, 9.55 µM in the experiment on SK-OV-3 ovarian, 6.71 µM in the experiment with SN12C renal and 8.36 µM with TK-10 renal.
Consider `C=CCCCCCCCCCCC1(O)C=CC2=[N+](CCCCCN=C(N)N)CCCN21` (stereo not drawn), for which the GI50 in the experiment with CAKI-1 renal is 3.22 µM; in the experiment on HCC-2998 colon it was 2.66 µM; in the experiment on HOP-62 NSCLC it was 8.68 µM; in the experiment with KM12 colon, 3.42 µM; in the experiment on NCI-H23 lung it was 12.9 µM; in the experiment on RXF 393 renal it was 3.19 µM. Besides, the GI50 is 19.1 µM with SK-OV-3 ovarian and 1.33 µM in the experiment with TK-10 renal. The TGI with CAKI-1 renal turned out to be 14.1 µM; with HCC-2998 colon, 24.6 µM; with HOP-62 NSCLC, 32 µM; in the experiment with HOP-92 NSCLC, 0.759 µM; with KM12 colon, 18.7 µM; with NCI-H23 lung it was 32.3 µM. The TGI in the experiment with RXF 393 renal came to 19.3 µM; in the experiment on SK-OV-3 ovarian it was 38.5 µM; with SN12C renal it was 11.3 µM; in the experiment with TK-10 renal, 4.56 µM.
Consider `Cn1cc(C2=C(c3cn(C)c4cc(C(N)=O)ccc34)C(=O)NC2=O)c2ccccc21`, for which the GI50 was 0.831 µM in the experiment with CAKI-1 renal; 5.17 µM in the experiment with HCC-2998 colon; 1.67 µM in the experiment on HOP-62 NSCLC; 2.15 µM in the experiment with HOP-92 NSCLC; 1.02 µM with KM12 colon; 1.35 µM in the experiment on NCI-H23 lung. The GI50 in the experiment on RXF 393 renal is 0.559 µM; in the experiment with SK-OV-3 ovarian, 1.44 µM; in the experiment on SN12C renal, 1.91 µM; in the experiment on TK-10 renal, 3.76 µM. Further, the TGI is 10.7 µM in the experiment with CAKI-1 renal; more than 25 µM in the experiment on HCC-2998 colon; more than 25 µM in the experiment on HOP-62 NSCLC; 24.5 µM with HOP-92 NSCLC; 6.17 µM in the experiment on KM12 colon; more than 25 µM in the experiment with NCI-H23 lung. The TGI in the experiment with RXF 393 renal was 1.95 µM; in the experiment on SK-OV-3 ovarian it was more than 22.2 µM; in the experiment with SN12C renal it was 13.8 µM; in the experiment on TK-10 renal, more than 21 µM.
Regarding `O=C(c1c(F)ccc(NS(=O)(=O)N2CC[C@@H](F)C2)c1F)c1c[nH]c2ncc(-c3cnc(C4CC4)nc3)cc12`, the GI50 in the experiment on CAKI-1 renal is 3.22 µM and 3.29 µM; with HCC-2998 colon, > 10 µM and 12.5 µM; with HOP-62 NSCLC it was 6.24 µM and 7.01 µM; with HOP-92 NSCLC, 0.576 µM and 2.24 µM; in the experiment with KM12 colon, 8.25 µM and 9.66 µM; with NCI-H23 lung, > 10 µM and 10.2 µM. Moreover, the GI50 with RXF 393 renal was 3.46 µM and 4.36 µM; with SK-OV-3 ovarian, 3.39 µM and 3.66 µM; in the experiment with SN12C renal, 4.89 µM and 4.81 µM; in the experiment with TK-10 renal it was 3.53 µM and 8.03 µM. The TGI with CAKI-1 renal was > 10 µM and 29.8 µM; in the experiment on HCC-2998 colon it was > 10 µM and 29.8 µM; in the experiment with HOP-62 NSCLC, > 10 µM and 58.6 µM; with HOP-92 NSCLC, > 10 µM and 32.8 µM; with KM12 colon it was > 10 µM and 33.6 µM; in the experiment with NCI-H23 lung it was > 10 µM and 41.1 µM. Moreover, the TGI in the experiment with RXF 393 renal is > 10 µM and 25 µM; in the experiment with SK-OV-3 ovarian, > 10 µM and 21.4 µM; in the experiment on SN12C renal, > 10 µM and 54.2 µM; with TK-10 renal, more than 66.9 µM.
`CCCCCCC[CH2][Sn]1([CH2]CCCCCCC)[O]C(=O)c2cccnc2[S]1`: the GI50 in the experiment on CAKI-1 renal, in the experiment on HCC-2998 colon, with HOP-62 NSCLC, in the experiment on HOP-92 NSCLC, in the experiment with KM12 colon and in the experiment with NCI-H23 lung was more than 100 µM throughout. Further, the GI50 in the experiment with RXF 393 renal, in the experiment with SK-OV-3 ovarian, in the experiment on SN12C renal and with TK-10 renal was more than 100 µM throughout. Also, the TGI with CAKI-1 renal, with HCC-2998 colon, with HOP-62 NSCLC, in the experiment on HOP-92 NSCLC, with KM12 colon and in the experiment with NCI-H23 lung was more than 100 µM throughout. Also, the TGI in the experiment with RXF 393 renal, in the experiment with SK-OV-3 ovarian, with SN12C renal and with TK-10 renal was more than 100 µM each time.
As for `Cc1ccc(/C=C/c2c(C(=O)/C=C/c3ccc(C(F)(F)F)cc3)c(C)nc3ccccc23)cc1`, the GI50 with CAKI-1 renal was 1.11 µM; with HCC-2998 colon, 1.48 µM; with HOP-62 NSCLC, 1.88 µM; in the experiment on HOP-92 NSCLC, 1.43 µM; in the experiment on KM12 colon, 2.06 µM; in the experiment on NCI-H23 lung it was 1.29 µM. The GI50 in the experiment on RXF 393 renal is 1.12 µM; with SK-OV-3 ovarian, 1.8 µM; with SN12C renal, 1.51 µM; in the experiment on TK-10 renal it was 2.36 µM. The TGI with CAKI-1 renal is 2.32 µM; in the experiment with HCC-2998 colon it was 2.81 µM; in the experiment with HOP-62 NSCLC, 3.73 µM; in the experiment on HOP-92 NSCLC it was 2.98 µM; with KM12 colon, 5.03 µM; with NCI-H23 lung it was 3.13 µM. The TGI in the experiment with RXF 393 renal was 2.41 µM; in the experiment with SK-OV-3 ovarian it was 3.6 µM; in the experiment with SN12C renal, 2.97 µM; in the experiment on TK-10 renal, 3.9 µM.

Values taken from PubChem BioAssay (NCI).
